Assay results as given in paper PMC5742828, “α-Glucosidase and Protein Tyrosine Phosphatase 1B Inhibitory Activity of Plastoquinones from Marine Brown Alga Sargassum serratifolium” (Marine Drugs, 2017).

Experiments:
Format in all cases: biochemical
[1] = target: T1, PTP1B (human recombinant) (Homo sapiens, UniProt P18031); assay: PTP1B inhibitory assay (pNPP substrate); conditions: log-dose inhibition curve; mean ± SEM of triplicate experiments
T1 construct: purchased Biomol International LP (Plymouth Meeting, PA, USA)
T1 sequence (P18031 1-435): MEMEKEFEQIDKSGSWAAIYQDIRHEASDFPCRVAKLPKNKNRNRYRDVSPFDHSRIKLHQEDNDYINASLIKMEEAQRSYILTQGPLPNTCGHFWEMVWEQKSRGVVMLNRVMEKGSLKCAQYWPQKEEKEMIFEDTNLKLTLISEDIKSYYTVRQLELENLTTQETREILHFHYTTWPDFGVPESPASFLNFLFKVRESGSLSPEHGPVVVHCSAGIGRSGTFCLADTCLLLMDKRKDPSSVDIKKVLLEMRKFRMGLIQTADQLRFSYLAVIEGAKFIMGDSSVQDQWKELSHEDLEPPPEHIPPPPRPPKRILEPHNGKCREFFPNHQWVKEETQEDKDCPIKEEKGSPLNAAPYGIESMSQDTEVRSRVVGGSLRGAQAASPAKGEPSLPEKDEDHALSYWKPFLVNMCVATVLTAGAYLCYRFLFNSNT
Procedure: Dithiothreitol (DTT) was purchased from Bio-Rad Laboratories (Hercules, CA, USA) and PTP1B (human recombinant) was purchased from Biomol International LP (Plymouth Meeting, PA, USA). ONOO^− was purchased from Molecular Probes Cayman (Ann Arbor, MI, USA). All other chemicals and solvents used were purchased from E. Merck, Fluka, and Sigma-Aldrich, unless otherwise stated. The PTP1B inhibitory activities of the plastoquinones were evaluated using pNPP [68]. Recombinant PTP1B enzyme (0.5 units diluted with a PTP1B reaction buffer) was added with or without sample. The plate was pre-incubated at 37 °C for 10 min and then substrate (2 mM pNPP) was added. Following incubation at 37 °C for 15 min, the enzymatic reaction was terminated by the addition of 10 M NaOH.

[2] = target: T1, PTP1B (human recombinant); assay: Kinetic study against PTP1B (Dixon plots); conditions: Dixon plot; pNPP 0.5, 1.0, 2.0 mM
Procedure: (§1) In an attempt to explain the mode of enzymatic inhibition of sargahydroquinoic acid, sargachromenol, and sargaquinoic acid, kinetic analysis was performed at different concentrations of the substrate (pNPP for PTP1B and pNPG for α-glucosidase) and inhibitor.
Figure 3 Dixon plots for PTP1B inhibition of compounds. (a) sargahydroquinoic acid; (b) sargachromenol and (c) sargaquinoic acid were tested in the presence of different concentrations of substrate: 2.0 mM (●); 1.0 mM (ο); 0.5 mM (▼).
(§2) To determine the modes of enzyme inhibition, Dixon plots were used. The kinetic analyses were performed at different concentrations of substrate (0.625, 1.25, and 2.5 mM pNPG for α-glucosidase; 0.5, 1.0, and 2.0 mM pNPP for PTP1B) and various concentrations of plastoquinones (0, 0.4, 2.0, and 10.0 µM for PTP1B and 0, 25, 50 and 100 µM for α-glucosidase, respectively). Enzymatic inhibition of the test plastoquinones was evaluated by monitoring the effects of different concentrations of the substrate in the Dixon plots (single reciprocal plots). The enzymatic procedure consisted of the same aforementioned assay method. The inhibition constants (Ki) were determined via interpretation of the Dixon plots, where the value of the x-axis implies -Ki.

[3] = tested on: bovine serum albumin (BSA); assay: Inhibition of ONOO−-mediated albumin nitration (western blot, 3-nitrotyrosine antibody); conditions: ONOO− 200 µM
Procedure: Figure 5 Dose-depended inhibition of ONOO^−-mediated albumin nitration by plastoquinones. Mixtures of test samples, bovine serum albumin (BSA), and ONOO^− were incubated with shaking at 37 °C for 30 min. The reactant was resolved in 10% polyacrylamide gel via electrophoresis. (a) sargahydroquinoic acid; (b) sargachromenol; and (c) sargaquinoic acid were used at the indicated concentrations; (d) Quantification of band intensity was calculated using CS Analyzer 3.00 (ATTO Corp., Tokyo, Japan). ^# p < 0.05 indicates a significant difference from the untreated normal group, * p < 0.05 indicate significant differences from the ONOO^− treated control.
The inhibition of ONOO^–-mediated nitrated albumin was evaluated using the method of Aulak et al.. Samples were added to bovine serum albumin (BSA) and mixed with ONOO^− (200 µM). After 10 min incubation (room temperature), the sample solution was added to Bio-Rad 2X Laemmli Sample buffer with mercaptoethanol and then boiled for 7 min. The reactant was resolved in 10% polyacrylamide gel via electrophoresis and transferred onto PVDF membranes. Pre-stained blue protein markers were used for molecular weight determination. Monoclonal anti-nitrotyrosine antibody (85 kDa) was used as a primary antibody and horseradish peroxidase-conjugated sheep anti-mouse secondary antibody was used as a secondary antibody. Antibody labeling was visualized using the Supersignal West Pico Chemiluminescent substrate (Pierce Chemical Co., Rockford, IL, USA). Densitometric analysis of the western blot results was determined using CS analyzer v3.00 (ATTO Corp.).

Yeast α-glucosidase = Yeast α-glucosidase (Saccharomyces cerevisiae, UniProt P53341); assay: Kinetic study against α-glucosidase (Dixon plots); conditions: Dixon plot; pNPG 0.625, 1.25, 2.5 mM
Procedure: as §1
Figure 4 Dixon plots for α-glucosidase inhibition of compounds. (a) sargachromenol and (b) sargaquinoic acid were tested in the presence of different concentrations of substrate: 2.5 mM (●); 1.25 mM (ο); 0.625 mM (▼).
as §2

Chain of Yeast α-glucosidase (P53341 whole entry): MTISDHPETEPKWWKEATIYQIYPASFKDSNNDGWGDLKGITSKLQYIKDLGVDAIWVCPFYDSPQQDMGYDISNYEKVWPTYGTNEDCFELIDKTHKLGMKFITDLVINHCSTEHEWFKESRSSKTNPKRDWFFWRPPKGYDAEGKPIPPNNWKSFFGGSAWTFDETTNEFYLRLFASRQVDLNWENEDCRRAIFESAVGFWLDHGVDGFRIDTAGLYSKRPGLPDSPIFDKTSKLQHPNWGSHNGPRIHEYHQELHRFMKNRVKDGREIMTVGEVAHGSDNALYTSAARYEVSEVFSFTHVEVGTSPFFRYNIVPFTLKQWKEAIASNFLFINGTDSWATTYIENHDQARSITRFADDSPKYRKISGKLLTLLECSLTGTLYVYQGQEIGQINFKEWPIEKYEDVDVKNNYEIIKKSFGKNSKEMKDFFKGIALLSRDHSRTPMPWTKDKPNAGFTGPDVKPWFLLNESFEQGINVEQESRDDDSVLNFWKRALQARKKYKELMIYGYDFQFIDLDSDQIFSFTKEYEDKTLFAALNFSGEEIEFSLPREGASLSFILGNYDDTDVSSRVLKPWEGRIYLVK

IC50 [1] [µM]	Ki [2] [µM]	PTP1B Inhibition Type [2]	α-Glucosidase Inhibition Type (Yeast α-glucosidase)	Structure (SMILES)	Inhibition of ONOO−-mediated albumin nitration ([3]; pretreatment at 5–25 μM)	Inhibition of ONOO−-mediated albumin nitration ([3]; pretreatment at 2.5–10 μM)
5.14 ± 0.07	2.21	Mixed	–	CC(C)=CCC/C(=C/CC/C(C)=C/CC/C(C)=C/Cc1cc(O)cc(C)c1O)C(=O)O [Sargahydroquinoic acid, sargahydroquinoic acid]	markedly dose-dependent inhibition	–
14.15 ± 0.02	5.2	Mixed	Mixed	CC(C)=CCC/C(=C/CC/C(C)=C/CC/C(C)=C/CC1=CC(=O)C=C(C)C1=O)C(=O)O [Sargaquinoic acid, sargaquinoic acid]	markedly dose-dependent inhibition	–
11.8 ± 3.35	5.85	Non-competitive	Non-competitive	CC(C)=CCC/C(=C/CC/C(C)=C/CCC1(C)C=Cc2cc(O)cc(C)c2O1)C(=O)O (centres unmarked) [Sargachromenol, sargachromenol]	–	strong inhibition
